Reference: ChEMBL document CHEMBL5584205 (Bioorg Med Chem Lett, 2024)
Calls of active or inactive are those of the source. The rule behind the calls is not given here.

Tests used:
[1] = Inhibition of elastase release in fMLP/CB-induced human neutrophils by cell based assay; assay type: functional; settings: Neutrophil
Neutrophil elastase = target: T1, Neutrophil elastase (Homo sapiens, UniProt P08246); experiment: Inhibition of human neutrophil elastase by enzymatic assay
T1 sequence (P08246 whole entry): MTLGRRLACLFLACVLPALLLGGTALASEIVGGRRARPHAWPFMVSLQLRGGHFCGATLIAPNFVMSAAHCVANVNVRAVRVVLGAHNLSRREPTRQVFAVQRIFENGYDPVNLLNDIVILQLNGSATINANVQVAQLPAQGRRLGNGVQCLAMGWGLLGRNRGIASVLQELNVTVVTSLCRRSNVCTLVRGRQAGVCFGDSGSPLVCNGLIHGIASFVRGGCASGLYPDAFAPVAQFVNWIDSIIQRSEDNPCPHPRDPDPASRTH

Neutrophil = experiment: Inhibition of O2 generation in fMLP/CB-induced human neutrophils by cell based assay; assay type: functional
Myeloblastin = target: T2, Myeloblastin (Homo sapiens, UniProt P24158); experiment: Inhibition of PR3 (unknown origin) activity
T2 sequence (P24158 whole entry): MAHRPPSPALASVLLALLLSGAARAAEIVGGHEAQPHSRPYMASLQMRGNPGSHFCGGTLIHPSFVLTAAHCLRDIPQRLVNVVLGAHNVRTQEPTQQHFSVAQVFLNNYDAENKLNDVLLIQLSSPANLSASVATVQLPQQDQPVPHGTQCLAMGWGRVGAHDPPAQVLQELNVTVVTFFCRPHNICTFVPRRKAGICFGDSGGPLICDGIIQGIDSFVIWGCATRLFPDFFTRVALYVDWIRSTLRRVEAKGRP

[2] = target: T3, NAD-dependent protein deacetylase sirtuin-2 (Homo sapiens, UniProt Q8IXJ6); experiment: Inhibition of SIRT2 (unknown origin) activity
T3 sequence (Q8IXJ6 whole entry): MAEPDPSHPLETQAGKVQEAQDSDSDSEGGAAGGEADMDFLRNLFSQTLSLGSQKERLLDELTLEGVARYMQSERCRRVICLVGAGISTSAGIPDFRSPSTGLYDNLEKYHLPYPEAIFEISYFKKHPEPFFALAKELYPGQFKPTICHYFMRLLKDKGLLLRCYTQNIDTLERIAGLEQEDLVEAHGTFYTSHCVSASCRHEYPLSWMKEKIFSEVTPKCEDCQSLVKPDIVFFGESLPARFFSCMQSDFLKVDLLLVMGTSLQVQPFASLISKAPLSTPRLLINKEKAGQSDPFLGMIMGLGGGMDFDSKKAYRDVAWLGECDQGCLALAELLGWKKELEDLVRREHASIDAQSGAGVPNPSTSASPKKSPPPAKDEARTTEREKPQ

Homo sapiens = organism: Homo sapiens; experiment: Inhibition of CG (unknown origin)

SMILES | IC50 [1] [µM] | IC50 (Neutrophil elastase) [µM] | IC50 (Neutrophil) [µM] | IC50 (Myeloblastin) [µM] | IC50 [2] [µM] | inhibition (Homo sapiens)
COC(=O)[C@H](NC(=O)c1ccccc1/N=N/c1c(O)ccc2ccccc12)c1ccccc1 | > 10 | 18.9 | > 10 | – | – | –
COC(=O)[C@@H](NC(=O)c1ccccc1/N=C/c1ccccc1O)c1ccccc1 | 8.73 | > 50 | > 10 | – | – | –
CC(NC(=O)c1ccccc1/N=C/c1ccccc1O)c1ccccc1 (configuration not stated) | > 10 | > 50 | 6.07 | – | – | –
CC(NC(=O)c1ccccc1/N=C/c1c(O)ccc2ccccc12)c1ccccc1 (configuration not stated) [SIRTINOL] | 1.92 | 24.5 | > 10 | – | – | –
COC(=O)[C@@H](NC(=O)c1ccccc1/N=N/c1c(O)ccc2ccccc12)c1ccccc1 | > 10 | 18 | > 10 | – | – | –
O=C(N[C@H](C(=O)O)c1ccccc1)c1ncccc1/N=N/c1c(O)ccc2ccccc12 | 1.86 | 4.91 | 0.9 | 20.7 | 2.42 | inactive
O=C(N[C@H](Cc1ccccc1)C(=O)O)c1ccccc1/N=N/c1c(O)ccc2ccccc12 | 1.54 | 20.7 | 1.61 | – | – | –
COC(=O)[C@H](Cc1ccccc1)NC(=O)c1ccccc1/N=N/c1c(O)ccc2ccccc12 | > 10 | 31.2 | – | – | – | –
O=C(N[C@@H](Cc1ccccc1)C(=O)O)c1ccccc1/N=N/c1c(O)ccc2ccccc12 | 1.07 | 21 | 1.31 | – | – | –
COC(=O)[C@H](NC(=O)c1ccccc1/N=C/c1c(O)ccc2ccccc12)c1ccccc1 | 1.76 | 38.8 | 5.56 | – | – | –
COC(=O)[C@@H](NC(=O)c1ccccc1/N=C/c1c(O)ccc2ccccc12)c1ccccc1 | 3.84 | > 50 | 3.56 | – | – | –
C[C@@H](NC(=O)c1ccccc1/N=C/c1c(O)ccc2ccccc12)C1CCCCC1 | > 10 | > 50 | > 10 | – | – | –
O=C(N[C@H](C(=O)O)c1ccccc1)c1ccccc1/N=C/c1c(O)ccc2ccccc12 | > 10 | > 50 | 2.5 | – | – | –
O=C(N[C@@H](C(=O)O)c1ccccc1)c1ccccc1/N=N/c1c(O)ccc2ccccc12 | 2.36 | 20.4 | 1.12 | – | – | –
COC(=O)[C@@H](NC(=O)c1ncccc1/N=N/c1c(O)ccc2ccccc12)c1ccccc1 | > 10 | 22.4 | > 10 | – | – | –
COC(=O)[C@@H](Cc1ccccc1)NC(=O)c1ccccc1/N=C/c1c(O)ccc2ccccc12 | 1.59 | > 50 | 4.27 | – | – | –
CC(NC(=O)c1ccccc1NCc1c(O)ccc2ccccc12)c1ccccc1 (configuration not stated) | 6.44 | 26.2 | > 10 | – | – | –
O=C(N[C@H](C(=O)O)c1ccccc1)c1ccccc1/N=N/c1c(O)ccc2ccccc12 | 2.25 | 16.8 | 2.02 | – | – | –
COC(=O)[C@H](Cc1ccccc1)NC(=O)c1ccccc1/N=C/c1c(O)ccc2ccccc12 | 2.09 | > 50 | 2.95 | – | – | –
COC(=O)[C@H](NC(=O)c1ccccc1/N=C/c1ccccc1O)c1ccccc1 | 4.98 | > 50 | 4.36 | – | – | –
COC(=O)[C@@H](Cc1ccccc1)NC(=O)c1ccccc1/N=N/c1c(O)ccc2ccccc12 | > 10 | 19.3 | – | – | – | –
CC(NC(=O)c1ccccc1/N=N/c1c(O)ccc2ccccc12)c1ccccc1 (configuration not stated) | > 10 | 12.1 | > 10 | – | – | –
